From ChEMBL document CHEMBL5357023, “Synthesis and Evaluation of Benzylamine Inhibitors of Neuropathogenic Naegleria fowleri "Brain-Eating" Amoeba” (ACS Med Chem Lett, 2024)
Values after ≈ are worked out from the molar mass of the structure shown.

Columns and labels:
[1] = tested on: Naegleria fowleri; assay: Anti-ameobic activity against Naegleria fowleri NF69 ATCC 30215 assessed as growth inhibition incubated for 48 hrs relative to control; assay type: functional, organism-based; details: for growth inhibition (GI): time 48 hrs
[2] = tested on: SH-SY5Y; assay: Cytotoxicity against human SH-SY5Y cells assessed as reduction in cell viability at 20 uM incubated for 72 hrs by celltiter glow assay; assay type: functional
[3] = tested on: Naegleria fowleri; assay: Anti-ameobic activity against Naegleria fowleri NF69 ATCC 30215 incubated for 48 hrs; assay type: functional, organism-based; details: NF69 ATCC 30215, 48 h
[4] = tested on: SH-SY5Y; assay: Cytotoxicity against human SH-SY5Y cells assessed as reduction in cell viability at 1 uM incubated for 72 hrs by celltiter glow assay; assay type: functional
[5] = tested on: SH-SY5Y; assay: Cytotoxicity against human SH-SY5Y cells assessed as reduction in cell viability incubated for 72 hrs by celltiter glow assay; assay type: functional
[6] = Lipophilicity, log D of the compound in octanol/phosphate buffer at pH 7.4 incubated for 2 mins by LC-MS analysis; assay type: physicochemical
[7] = Kinetic solubility of compound in phosphate buffer at pH 7.4 incubated for 24 hrs by HPLC analysis; assay type: physicochemical; details: read-out: Kinetic_solubility
[8] = Microsomal stability in CD-1 mouse liver microsome assessed as half life preincubated for 60 mins followed by NADPH addition and measured after 60 mins by HPLC analysis; assay type: ADME; details: liver microsomes, time 120 min
[9] = Stability in CD-1 mouse plasma assessed as parent compound remaining incubated for 20 mins by LC-MS analysis; assay type: ADME, cell-free; details: read-out: Stability
[10] = Plasma protein binding in CD-1 mouse measured for 4 hrs by LC-MS/MS analysis; assay type: ADME, cell-free; details: read-out: PPB (converted)
[11] = Permeability of compound incubated for 18 hrs by PAMPA assay; assay type: ADME; details: read-out: permeability

| EC50 [3] [µM] | SMILES | Cell viability remaining [2] [%] | growth inhibition (GI) [1] [%] | Activity [4] [%] | further results |
| --- | --- | --- | --- | --- | --- |
| > 10 | CC(C)(C)c1ccc(CNc2cc(Cl)cnc2C(N)=O)cc1 | 77 | 27.7 | 100 | – |
| > 10 | CC(C)(C)c1ccc(CCc2cc(Cl)cnc2C(=O)O)cc1 | 85 | 0 | 100 | – |
| > 10 | CC(Nc1cc(Cl)cnc1C(=O)O)c1ccc(C(C)(C)C)cc1 (stereo unspecified) | 100 | 38.2 | 98 | – |
| > 10 | COc1ccc(CNc2cc(Cl)cnc2C(=O)O)cc1 | 95 | 6.6 | 98 | – |
| 5 | CC(C)(C)c1ccc(CNc2cc(F)cnc2C(=O)O)cc1 | 73 | 99.5 | 91 | – |
| > 10 | COc1ccc(CCNc2cc(Cl)cnc2C(=O)O)cc1 | 71 | 12.9 | 95 | – |
| > 10 | CC(C)(C)c1ccc(CC(=O)Nc2cc(Cl)cnc2C(=O)O)cc1 | 19 | 9.9 | 76 | – |
| > 10 | CC(C)(C)c1ccc(Nc2cc(Cl)cnc2C(=O)O)cc1 | 57 | 4.5 | 98 | – |
| > 10 | CC(C)(C)c1ccc(CNc2cc(Cl)cnc2C(=O)O)s1 | 90 | 0 | 95 | – |
| 3.3 | CC(C)(C)c1ccc(CCNc2cc(Cl)cnc2C(=O)O)cc1 | 100 | 99.8 | 95 | – |
| > 10 | O=C(O)c1ncc(Cl)cc1NCCc1ccc(C(F)(F)F)cc1 | 57 | 44.8 | 59 | – |
| 1.4 | Cc1cnc(C(=O)O)c(NCc2ccc(C(C)(C)C)cc2)c1 | 98 | 100.4 | 96 | CC50 [5]: > 20 µM; logD at 2 min [6]: 2.4; solubility kinetic at 24 h [7]: 208 µM (≈ 62.1 µg/mL); half-life [8]: 49 min |
| 1.1 | COc1cnc(C(=O)O)c(NCCc2ccc(C(C)(C)C)cc2)c1 | 57 | 100.4 | 87 | – |
| > 10 | O=C(O)c1ncc(Cl)cc1NCc1ccc(C(F)(F)F)cc1 | 66 | 29.5 | 78 | – |
| 0.92 | COc1cnc(C(=O)O)c(NCc2ccc(C(C)(C)C)cc2)c1 | 100 | 100.3 | 98 | CC50 [5]: > 20 µM; logD at 2 min [6]: 2.3; solubility kinetic at 24 h [7]: 199 µM (≈ 62.6 µg/mL); half-life [8]: 72 min; remaining at 20 min [9]: 92%; fraction unbound at 4 h [10]: 0.003; Papp at 18 h [11]: 9.69 ×10⁻⁶ cm/s |
| 6 | CC(C)(C)c1ccc(CNc2cc(Cl)cnc2C(=O)O)cc1 | 53 | 98.8 | 85 | CC50 [5]: > 20 µM; logD at 2 min [6]: 2.3; solubility kinetic at 24 h [7]: 84 µM (≈ 26.8 µg/mL); half-life [8]: 38 min; remaining at 20 min [9]: 93%; fraction unbound at 4 h [10]: 0.009; Papp at 18 h [11]: 8.5 ×10⁻⁶ cm/s |
| > 10 | O=C(O)c1ncc(Cl)cc1NCc1ccccc1 | 95 | 0 | 95 | – |
| > 10 | O=C(O)c1ncc(Cl)cc1NCc1ccc(F)cc1 | 100 | 22.8 | 93 | – |
| 7.2 | CC(C)(C)c1ccc(CNc2cc(Br)cnc2C(=O)O)cc1 | 85 | 84.4 | 99 | – |
| > 10 | Cc1ccc(CNc2cc(Cl)cnc2C(=O)O)cc1 | 94 | 0 | 100 | – |

More lines, now with the values behind:

| SMILES | EC50 [3] [µM] | Cell viability remaining [2] [%] | growth inhibition (GI) [1] [%] | Activity [4] [%] | further results |
| --- | --- | --- | --- | --- | --- |
| CC(C)(C)c1ccc(C(=O)Nc2cc(Cl)cnc2C(=O)[O-])cc1.[Na+] | – | 61 | – | – | EC50 ([1]; Naegleria fowleri, NF69 ATCC 30215, 48 h): > 10 µM |
| CC(C)(C)c1ccc(CNc2cc(Cl)ncc2C(=O)O)cc1 | > 10 | – | – | – | – |
| CC(C)(C)c1ccc(S(=O)(=O)Nc2cc(Cl)cnc2C(=O)O)cc1 | > 10 | 100 | 16.5 | 100 | – |
| CC(C)(C)c1ccc(CNc2cncc(Cl)c2)cc1 | > 10 | 88 | 17.6 | 100 | – |
| CC(C)(C)c1ccc(CNc2cc(Cl)c(-c3ccccc3)nc2C(=O)O)cc1 | > 10 | 82 | 20.4 | 100 | – |
| CC(C)(C)c1ccc(CNc2cc(-c3ccccc3)cnc2C(=O)O)cc1 | 5 | 81 | 99.3 | 100 | – |
| CC(C)(C)c1ccc(CNc2cc(N3CCOCC3)cnc2C(=O)O)cc1 | 11.5 | 75 | 52.8 | 85 | – |
| CC(C)(C)c1ccc(CNc2scnc2C(=O)O)cc1 | > 10 | – | – | – | – |
| CC(C)(C)c1ccc(CNc2cc(Cl)cnc2C#N)cc1 | > 10 | 57 | 22.2 | 96 | – |
| CC(C)(C)c1ncc(CNc2cc(Cl)cnc2C(=O)O)s1 | > 10 | 67 | 0 | 95 | – |
| CC(C)(C)c1ccc(CNc2cc(Cl)c(Cl)nc2C(=O)O)cc1 | > 10 | 100 | 12.3 | 100 | – |
| CC(C)(C)c1ccc(CNc2cc(Cl)c(Br)nc2C(=O)O)cc1 | > 10 | 100 | 17.6 | 100 | – |
| CC(C)(C)c1ccc(CNc2cccnc2C(=O)O)cc1 | 3 | 89 | 99.2 | 100 | – |
| CC(C)(C)c1ccc(CNc2cncnc2C(=O)O)cc1 | > 10 | – | – | – | – |
| NC(=O)N1c2ccccc2C=Cc2ccccc21 [CARBAMAZEPINE] | – | – | – | – | Papp at 18 h [11]: 6.63 ×10⁻⁶ cm/s |
| CCCCCCCCCCCCCCCCOP(=O)([O-])OCC[N+](C)(C)C [MILTEFOSINE] | 35.7 | – | – | – | – |
| CC(C)(C)NCC(O)COc1cccc2c1CC(O)C(O)C2 (stereo unspecified) [NADOLOL] | – | – | – | – | Papp at 18 h [11]: < 0.01 ×10⁻⁶ cm/s |
